Experimental data as given in patent US20260176265A1 (Cancer Research Technology Limited, priority 2022, published 2026).

How the values were obtained:
[1] = molecular target: T1, Phospho-EGFR (Tyr1068) in H1975 C797S cells (Homo sapiens, UniProt P00533, C797S/L858R/T790M); assay: HTRF pEGFR/total EGFR assay in H1975 C797S cells; type: cell-based; settings: H1975 C797S cells (CRISPR), compound 3 hours, ratio pEGFR/total EGFR
T1 construct: endogenous in cells; host or cells: H1975 C797S (CRISPR-edited in house from ATCC CRL-5908)
T1 sequence (P00533 25-1210 T790M/C797S/L858R): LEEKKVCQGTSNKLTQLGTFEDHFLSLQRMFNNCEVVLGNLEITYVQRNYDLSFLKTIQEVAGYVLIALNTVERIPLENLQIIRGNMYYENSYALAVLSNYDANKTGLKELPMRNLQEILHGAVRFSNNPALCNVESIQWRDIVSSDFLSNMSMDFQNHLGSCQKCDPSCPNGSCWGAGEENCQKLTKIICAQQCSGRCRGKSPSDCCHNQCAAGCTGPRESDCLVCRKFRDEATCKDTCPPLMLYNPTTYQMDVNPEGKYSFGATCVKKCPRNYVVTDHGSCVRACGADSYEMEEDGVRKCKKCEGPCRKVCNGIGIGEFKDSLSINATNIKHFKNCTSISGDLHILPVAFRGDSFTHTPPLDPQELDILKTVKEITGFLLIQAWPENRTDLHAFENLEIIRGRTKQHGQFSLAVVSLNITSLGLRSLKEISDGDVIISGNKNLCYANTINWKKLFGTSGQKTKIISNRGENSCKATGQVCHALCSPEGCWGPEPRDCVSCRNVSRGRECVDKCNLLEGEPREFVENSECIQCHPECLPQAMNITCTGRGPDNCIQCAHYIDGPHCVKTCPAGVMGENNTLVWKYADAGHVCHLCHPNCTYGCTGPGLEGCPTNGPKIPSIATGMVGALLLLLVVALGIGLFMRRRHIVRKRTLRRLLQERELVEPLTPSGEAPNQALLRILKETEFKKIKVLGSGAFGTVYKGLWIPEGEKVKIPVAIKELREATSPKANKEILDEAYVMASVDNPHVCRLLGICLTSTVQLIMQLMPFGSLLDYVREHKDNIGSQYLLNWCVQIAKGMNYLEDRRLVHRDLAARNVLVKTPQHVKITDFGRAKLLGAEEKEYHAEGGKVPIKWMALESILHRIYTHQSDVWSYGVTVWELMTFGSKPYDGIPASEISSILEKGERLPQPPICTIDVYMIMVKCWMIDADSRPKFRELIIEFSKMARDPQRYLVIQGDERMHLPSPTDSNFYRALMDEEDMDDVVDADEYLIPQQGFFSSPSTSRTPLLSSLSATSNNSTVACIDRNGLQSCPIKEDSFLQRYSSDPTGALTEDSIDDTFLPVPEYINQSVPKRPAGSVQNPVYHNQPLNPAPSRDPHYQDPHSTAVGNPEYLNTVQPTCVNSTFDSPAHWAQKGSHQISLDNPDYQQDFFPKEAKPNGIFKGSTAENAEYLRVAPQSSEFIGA
Method in brief: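 Phospho-EGFR (Tyr1068) and total EGFR were measured by HTRF (665 and 620 nm) in lysates of NGS-validated H1975 EGFR C797S cells. Cells were dosed for 3 h in duplicate, 0.1% DMSO final. Read-out is the pEGFR/total EGFR ratio relative to the 0 uM control, as percent.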

[2] = molecular target: T2, Phospho-EGFR (Tyr1068) in H1975 cells (Homo sapiens, UniProt P00533, L858R/T790M); assay: HTRF pEGFR/total EGFR assay in H1975 cells; type: cell-based; settings: compound 3 hours, ratio pEGFR/total EGFR
T2 construct: host or cells: H1975
Method in brief: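 H1975 cells (EGFR L858R/T790M) adhered 24 h, then compound-treated for 3 h in duplicate, 0.1% DMSO final. Lysates read by HTRF at 665/620 nm for phospho-Tyr1068 and total EGFR. Value is pEGFR/total EGFR ratio as % of 0 uM control.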

[3] = molecular target: T3, Phospho-EGFR (Tyr1068) in A431 cells (Homo sapiens, UniProt P00533); assay: HTRF pEGFR/total EGFR assay in A431 cells (EGF stimulated); type: cell-based; settings: compound 2.5 hours then 100 ng/ml EGF 30 mins, ratio pEGFR/total EGFR
T3 construct: endogenous in cells; host or cells: A431
T3 sequence (P00533 25-1210): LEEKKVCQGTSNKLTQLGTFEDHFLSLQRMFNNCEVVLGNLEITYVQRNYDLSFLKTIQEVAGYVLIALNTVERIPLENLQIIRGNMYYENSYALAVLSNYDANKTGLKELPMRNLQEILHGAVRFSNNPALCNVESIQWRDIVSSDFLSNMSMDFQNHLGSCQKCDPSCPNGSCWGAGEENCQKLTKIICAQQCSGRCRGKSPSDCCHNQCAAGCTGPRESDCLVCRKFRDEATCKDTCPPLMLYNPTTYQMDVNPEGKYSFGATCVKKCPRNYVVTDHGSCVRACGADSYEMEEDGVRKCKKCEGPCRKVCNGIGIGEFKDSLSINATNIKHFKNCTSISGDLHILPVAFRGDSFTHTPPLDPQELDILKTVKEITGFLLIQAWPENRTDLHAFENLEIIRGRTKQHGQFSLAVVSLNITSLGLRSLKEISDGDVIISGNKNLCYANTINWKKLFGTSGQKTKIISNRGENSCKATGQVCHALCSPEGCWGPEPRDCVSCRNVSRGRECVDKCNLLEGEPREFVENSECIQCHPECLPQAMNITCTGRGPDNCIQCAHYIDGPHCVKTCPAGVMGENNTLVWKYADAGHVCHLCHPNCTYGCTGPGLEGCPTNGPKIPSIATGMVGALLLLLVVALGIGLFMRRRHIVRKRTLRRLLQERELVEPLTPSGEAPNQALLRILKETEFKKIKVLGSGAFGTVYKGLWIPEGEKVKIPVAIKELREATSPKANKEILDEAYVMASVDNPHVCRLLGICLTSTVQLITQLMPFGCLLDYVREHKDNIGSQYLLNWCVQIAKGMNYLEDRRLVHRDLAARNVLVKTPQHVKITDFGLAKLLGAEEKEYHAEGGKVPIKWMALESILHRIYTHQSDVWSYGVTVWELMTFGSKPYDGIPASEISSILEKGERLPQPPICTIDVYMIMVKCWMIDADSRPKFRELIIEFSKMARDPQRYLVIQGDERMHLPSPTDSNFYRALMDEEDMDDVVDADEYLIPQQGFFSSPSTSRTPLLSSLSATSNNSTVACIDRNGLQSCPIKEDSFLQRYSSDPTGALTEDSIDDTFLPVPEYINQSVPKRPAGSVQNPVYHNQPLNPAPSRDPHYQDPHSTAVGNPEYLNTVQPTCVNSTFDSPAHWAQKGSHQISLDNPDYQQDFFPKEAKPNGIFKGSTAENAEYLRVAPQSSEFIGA
Method in brief: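 HTRF readout (665 and 620 nm) of Tyr1068-phosphorylated versus total EGFR in lysed A431 cells, expressed as ratio relative to 0uM control (%). Compound exposure 2.5 h in duplicate at 0.1% DMSO, with 100 ng/ml EGF added for 30 min.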

[4] = molecular target: CtermHisTag-mEGFR Triple Mutant - C797S, L858R, T790M (Homo sapiens, UniProt P00533, C797S/L858R/T790M); assay: TR-FRET probe displacement assay, EGFR triple mutant; type: binding; settings: T790M 1.25 nM, probe 100 nM, 30 mins room temperature
Sequence of CtermHisTag-mEGFR Triple Mutant - C797S, L858R, T790M (P00533 25-1210 T790M/C797S/L858R): as the sequence (P00533 25-1210 T790M/C797S/L858R) above
Method in brief: (§1)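 Probe displacement from His-tagged wild-type or triple-mutant EGFR measured by TR-FRET (excitation 337 nm, emission 490/520 nm). Compounds spanned final concentrations from 3 to 100000 nM over ten points; technical replicates, repeated twice biologically.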

[5] = molecular target: CtermHisTag-mEGFR Wild type (Homo sapiens, UniProt P00533); assay: TR-FRET probe displacement assay, EGFR wild type; type: binding; settings: EGFR wild type 1.25 nM, probe 100 nM, 30 mins room temperature
Sequence of CtermHisTag-mEGFR Wild type (P00533 25-1210): as the sequence (P00533 25-1210) above
Method in brief: as §1

Structure (SMILES) | IC50 [1] | IC50 [2] | IC50 [3] | IC50 [4] | IC50 [5]
C#Cc1cc(N2C(=O)N(C)CC23CCCC3)nc2nc(Nc3ccc(N(C)C(C)=O)cc3)ncc12 [Example 105, N-{4-[(5-Ethynyl-7-{3-methyl-2-oxo-1,3-diazaspiro[4.4]nonan-1-yl}pyrido[2,3-d]pyrimidin-2-yl)amino]phenyl}-N-methylacetamide] | > 3 µM | > 3 µM | > 3 µM | 0.1 to 1 µM | > 10 µM
C#Cc1cc(N2CC(C(C)C)OC2=O)nc2nc(Nc3ccc(N4CCN(C)CC4)cc3)ncc12 (centres unmarked) [Example 113, 3-(5-Ethynyl-2-{[4-(4-methylpiperazin-1-yl)phenyl]amino}pyrido[2,3-d]pyrimidin-7-yl)-5-isopropyl-1.3-oxazolidin-2-one] | 1 to 3 µM | 0.5 to 1 µM | > 3 µM | 0.02 to 0.1 µM | > 10 µM
C#Cc1cc(N2C(=O)NCC23CCCC3)nc2nc(Nc3ccc(N(C)C(C)=O)cc3)ncc12 [Example 93, N-{4-[(5-Ethynyl-7-{2-oxo-1,3-diazaspiro[4.4]nonan-1-yl}pyrido[2,3-d]pyrimidin-2-yl)amino]phenyl}-N-methylacetamide] | 1 to 3 µM | > 3 µM | 1 to 3 µM | 0.02 to 0.1 µM | > 10 µM
C#Cc1cc(NC(=O)NC2CCCC2)nc2nc(Nc3ccc(N4CCOCC4)cc3)ncc12 [Example 75] | < 0.5 µM | < 0.5 µM | < 0.5 µM | < 0.02 µM | < 1 µM
C#Cc1cc(N2C(=O)NCC23CCCC3)nc2nc(Nc3ccc(N4CCOCC4)cc3)ncc12 [Example 91, 1-(5-Ethynyl-2-{[4-(morpholin-4-yl)phenyl]amino}pyrido[2,3-d]pyrimidin-7-yl)-1,3-diazaspiro[4.4]nonan-2-one] | 1 to 3 µM | 0.5 to 1 µM | 1 to 3 µM | < 0.02 µM | < 1 µM
C#Cc1cc(OC)nc2nc(Nc3ccc(N4CCN(C)CC4)c(NCc4ccn(C)n4)c3)ncc12 [Example 11, N^1-{5-ethynyl-7-methoxypyrido[2,3-d]pyrimidin-2-yl}-4-(4-methylpiperazin-1-yl)-N^3-[(1-methylpyrazol-3-yl)methyl]benzene-1,3-diamine] | > 3 µM | > 3 µM | > 3 µM | 0.1 to 1 µM | > 10 µM
C#Cc1cc(NC(=O)NCc2ccnn2C)nc2nc(Nc3ccc(N4CCN(C)CC4)cc3)ncc12 [Example 48, 1-(5-ethynyl-2-{[4-(4-methylpiperazin-1-yl)phenyl]amino}pyrido[2,3-d]pyrimidin-7-yl)-3-[(2-methylpyrazol-3-yl)methyl]urea] | < 0.5 µM | < 0.5 µM | > 3 µM | < 0.02 µM | < 1 µM
C#Cc1cc(NC(=O)OC2CCCCC2)nc2nc(Nc3ccc(N4CCN(C)CC4)cc3)ncc12 [Example 66, cyclohexyl (5-ethynyl-2-((4-(4-methylpiperazin-1-yl)phenyl)amino)pyrido[2,3-d]pyrimidin-7-yl)carbamate] | > 3 µM | > 3 µM | > 3 µM | 0.1 to 1 µM | > 10 µM
C#Cc1cc(OC)nc2nc(Nc3ccc(N(C)CCN(C)C)cc3)ncc12 [Example 2, N^1-(2-(dimethylamino)ethyl)-N^4-(5-ethynyl-7-methoxypyrido[2,3-d]pyrimidin-2-yl)-N^1-methylbenzene-1,4-diamine] | > 3 µM | 1 to 3 µM | > 3 µM | 0.1 to 1 µM | > 10 µM
C#Cc1cc(NC(=O)N(C)C)nc2nc(Nc3ccc(N4CCN(C)CC4)cc3)ncc12 [Example 37, 1-(5-ethynyl-2-{[4-(4-methylpiperazin-1-yl)phenyl]amino}pyrido[2,3-d]pyrimidin-7-yl)-3,3-dimethylurea] | > 3 µM | > 3 µM | > 3 µM | 0.1 to 1 µM | > 10 µM
C#Cc1cc(OC)nc2nc(Nc3ccc(N4CCN(C)CC4)c(NCC4CCC4)c3)ncc12 [Example 10, N^3-(cyclobutylmethyl)-N^1-{5-ethynyl-7-methoxypyrido[2,3-d]pyrimidin-2-yl}-4-(4-methylpiperazin-1-yl)benzene-1,3-diamine] | > 3 µM | > 3 µM | > 3 µM | 0.02 to 0.1 µM | 1 to 10 µM
C#Cc1cc(NC(=O)NC2CCCC2)nc2nc(Nc3ccc(S(C)(=O)=O)cc3)ncc12 [Example 81, 3-Cyclopentyl-1-{5-ethynyl-2-[(4-methanesulfonylphenyl)amino]pyrido[2,3-d]pyrimidin-7-yl}urea] | 1 to 3 µM | 0.5 to 1 µM | 0.5 to 1 µM | < 0.02 µM | < 1 µM
C#Cc1cc(NC(=O)NC2CCCC2)nc2nc(Nc3ccccc3N3CCC(CS(C)(=O)=O)CC3)ncc12 [Example 90, 3-Cyclopentyl-1-[5-ethynyl-2-({2-[4-(methanesulfonylmethyl)piperidin-1-yl]phenyl}amino)pyrido[2,3-d]pyrimidin-7-yl]urea] | > 3 µM | > 3 µM | > 3 µM | 1 to 50 µM | > 10 µM
C#Cc1cc(NC(=O)NCc2ccccn2)nc2nc(Nc3ccc(N4CCN(C)CC4)cc3)ncc12 [Example 49, 3-(5-ethynyl-2-{[4-(4-methylpiperazin-1-yl)phenyl]amino}pyrido[2,3-d]pyrimidin-7-yl)-1-(pyridin-2-ylmethyl)urea] | 1 to 3 µM | 0.5 to 1 µM | > 3 µM | 0.02 to 0.1 µM | < 1 µM
C#Cc1cc(NC(=O)NC2CCCC2)nc2nc(Nc3cccc(CN4CCC(CS(C)(=O)=O)CC4)c3)ncc12 [Example 87] | < 0.5 µM | > 3 µM | 1 to 3 µM | 0.02 to 0.1 µM | < 1 µM
C#Cc1cc(OC)nc2nc(Nc3cccc(CN(C)C4CCC4)c3)ncc12 [Example 4, N-(3-{[cyclobutyl(methyl)amino]methyl}phenyl)-5-ethynyl-7-methoxypyrido[2,3-d]pyrimidin-2-amine] | > 3 µM | > 3 µM | > 3 µM | 0.1 to 1 µM | > 10 µM
C#Cc1cc(N2C(=O)NC[C@H]2C(C)C)nc2nc(Nc3ccc(N4CCN(C)CC4)cc3)ncc12 [Example 100, (5R)-1-(5-Ethynyl-2-{[4-(4-methylpiperazin-1-yl)phenyl]amino}pyrido[2,3-d]pyrimidin-7-yl)-5-isopropylmidazolidin-2-one] | 1 to 3 µM | 0.5 to 1 µM | > 3 µM | 0.1 to 1 µM | > 10 µM
C#Cc1cc(NC(=O)OCc2ccccc2)nc2nc(Nc3ccc(N4CCN(C)CC4)cc3)ncc12 [Example 67, benzyl (5-ethynyl-2-((4-(4-methylpiperazin-1-yl)phenyl)amino)pyrido[2,3-d]pyrimidin-7-yl)carbamate] | > 3 µM | > 3 µM | > 3 µM | 1 to 50 µM | > 10 µM
C#Cc1cc(NC(=O)NC2CCCC2)nc2nc(Nc3ccc(S(=O)(=O)N(C)C)cc3)ncc12 [Example 82, 3-Cyclopentyl-1-(2-([4-(dimethylsulfamoyl)phenyl]amino-5-ethynyl)pyrido[2,3-d]pyrimidin-7-yl)urea] | > 3 µM | > 3 µM | > 3 µM | < 0.02 µM | > 10 µM
